Experiments:
foxtail, giant = test: Test C pre-/postemergence herbicide test; assay type: in vivo, Setaria faberii
Procedure, shortened: (§1)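 Pre-emergence: seeds sown in loam/sand blend and treated with compound in surfactant-containing solvent. Post-emergence: plants at 2–18 cm (1- to 4-leaf stage) in peat-based medium sprayed with the same formulation. Visual rating versus controls after 13–15 days in greenhouse, scale 0 (no effect) to 100 (complete control).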

giant foxtail = test: Test A pre-/postemergence herbicide test; assay type: in vivo, Setaria faberii
Procedure, shortened: (§2)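 Seeds in loam–sand blend received preemergence directed soil spray; separately, plants 2–10 cm at one- to two-leaf stage received postemergence spray, both with test chemicals in non-phytotoxic solvent with surfactant. After ~10 days in greenhouse, injury rated visually against untreated controls, 0 (no effect) to 100 (complete control).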

wheat = test: Test A pre-/postemergence herbicide test; assay type: in vivo, Triticum aestivum; conditions: Postemergence
Procedure, shortened: as §2

lambsquarters = test: Test C pre-/postemergence herbicide test; assay type: in vivo, Chenopodium album
Procedure, shortened: as §1

wheat (winter wheat) = test: Test C pre-/postemergence herbicide test; assay type: in vivo, Triticum aestivum; conditions: for Plant response rating, Wheat: Postemergence
Procedure, shortened: as §1

pigweed = test: Test C pre-/postemergence herbicide test; assay type: in vivo, Amaranthus retroflexus
Procedure, shortened: as §1

morningglory = test: Test C pre-/postemergence herbicide test; assay type: in vivo, Ipomoea coccinea
Procedure, shortened: as §1

johnsongrass = test: Test C pre-/postemergence herbicide test; assay type: in vivo, Sorghum halepense
Procedure, shortened: as §1

barnyardgrass = test: Test C pre-/postemergence herbicide test; assay type: in vivo, Echinochloa crus-galli
Procedure, shortened: as §1

galium = test: Test C pre-/postemergence herbicide test; assay type: in vivo, Galium aparine
Procedure, shortened: as §1

[1] = Postemergence, 31 g ai/ha, scale 0 to 100 (0 no effect, 100 complete control)
[2] = Postemergence, 62 g ai/ha, scale 0 (no effect) to 100 (complete control)
[3] = Postemergence, 125 g ai/ha, scale 0 to 100 (0 no effect, 100 complete control)
[4] = Postemergence, 250 g ai/ha, scale 0 to 100 (0 no effect, 100 complete control)
[5] = Preemergence, 31 g ai/ha, scale 0 to 100, 0 is no effect and 100 is complete control
[6] = Preemergence, 62 g ai/ha, scale 0 to 100 (0 no effect, 100 complete control)
[7] = Preemergence, 125 g ai/ha, scale 0 to 100 (0 no effect, 100 complete control)

O=C1NCC(c2cc(F)cc(F)c2)C1C(=O)Nc1ccc(F)cc1F (racemic) [Compound 278]
Plant response rating, Foxtail, Giant (foxtail, giant; [1]): 10 | Plant response rating, Foxtail, Giant (foxtail, giant; [2]): 10 | Plant response rating, Foxtail, Giant (foxtail, giant; [3]): 40 | Plant response rating, Foxtail, Giant (foxtail, giant; [4]): 75 | Foxtail, Giant plant response rating (foxtail, giant; [5]): 80 | Foxtail, Giant plant response rating (foxtail, giant; [6]): 90 | Plant response rating, Foxtail, Giant (foxtail, giant; [7]): 95 | Plant response rating (scale of 0 to 100), Foxtail, Giant (foxtail, giant; Preemergence, 250 g ai/ha): 100 | Plant response rating, Foxtail, Giant (giant foxtail; Postemergence, 125 g ai/ha, 0 to 100 scale, 0 is no effect, 100 is complete control): 80 | Plant response rating, Foxtail, Giant (giant foxtail; Postemergence, 500 g ai/ha, 0 to 100 scale (0 no effect, 100 complete control)): 80 | Plant response rating, Foxtail, Giant (giant foxtail; Preemergence, 125 g ai/ha, 0 to 100 scale where 0 is no effect and 100 is complete control): 90 | Plant response rating, Foxtail, Giant (giant foxtail; preemergence, 500 g ai/ha, 0 to 100 scale, 0 is no effect and 100 is complete control): 90 | Plant response rating, Wheat (wheat; 125 g ai/ha, visual rating on 0 to 100 scale (0 no effect, 100 complete control), approx. 10 days): 0 | Plant response rating, Wheat (wheat; 500 g ai/ha, 0 to 100 scale (0 no effect, 100 complete control)): 0 | Plant response rating, Lambsquarters (lambsquarters; [1]): 0 | Plant response rating, Lambsquarters (lambsquarters; [2]): 0 | Plant response rating, Lambsquarters (lambsquarters; [3]): 20 | Plant response rating, Lambsquarters (lambsquarters; [4]): 20 | Lambsquarters plant response rating (lambsquarters; [5]): 0 | Lambsquarters plant response rating (lambsquarters; [6]): 0 | Plant response rating, Lambsquarters (lambsquarters; [7]): 0 | Plant response rating (scale of 0 to 100), Lambsquarters (lambsquarters; Preemergence, 250 g ai/ha): 0 | Plant response rating, Wheat (wheat (winter wheat); 31 g ai/ha, scale 0 to 100 (0 no effect, 100 complete control)): 0 | Plant response rating, Wheat (wheat (winter wheat); 62 g ai/ha, scale 0 (no effect) to 100 (complete control)): 0 | Plant response rating, Wheat (wheat (winter wheat); 125 g ai/ha, scale 0 to 100 (0 no effect, 100 complete control)): 0 | Plant response rating, Wheat (wheat (winter wheat); 250 g ai/ha, scale 0 to 100 (0 no effect, 100 complete control)): 0 | Wheat plant response rating (wheat (winter wheat); [5]): 0 | Wheat plant response rating (wheat (winter wheat); [6]): 0 | Plant response rating (scale of 0 to 100), Wheat (wheat (winter wheat); Preemergence, 250 g ai/ha): 0 | Plant response rating, Pigweed (pigweed; [1]): 0 | Plant response rating, Pigweed (pigweed; [2]): 5 | Plant response rating, Pigweed (pigweed; [3]): 15 | Plant response rating, Pigweed (pigweed; [4]): 15 | Pigweed plant response rating (pigweed; [5]): 5 | Pigweed plant response rating (pigweed; [6]): 0 | Plant response rating, Pigweed (pigweed; [7]): 0 | Plant response rating (scale of 0 to 100), Pigweed (pigweed; Preemergence, 250 g ai/ha): 0 | Plant response rating, Morningglory (morningglory; [1]): 0 | Plant response rating, Morningglory (morningglory; [2]): 0 | Plant response rating, Morningglory (morningglory; [3]): 45 | Plant response rating, Morningglory (morningglory; [4]): 0 | Morningglory plant response rating (morningglory; [5]): 0 | Morningglory plant response rating (morningglory; [6]): 0 | Plant response rating, Morningglory (morningglory; [7]): 0 | Plant response rating (scale of 0 to 100), Morningglory (morningglory; Preemergence, 250 g ai/ha): 0 | Plant response rating, Johnsongrass (johnsongrass; [1]): 0 | Plant response rating, Johnsongrass (johnsongrass; [2]): 0 | Plant response rating, Johnsongrass (johnsongrass; [3]): 0 | Plant response rating, Johnsongrass (johnsongrass; [4]): 0 | Johnsongrass plant response rating (johnsongrass; [5]): 0 | Johnsongrass plant response rating (johnsongrass; [6]): 0 | Plant response rating, Johnsongrass (johnsongrass; [7]): 0 | Plant response rating (scale of 0 to 100), Johnsongrass (johnsongrass; Preemergence, 250 g ai/ha): 0 | Plant response rating, Barnyardgrass (barnyardgrass; [1]): 0 | Plant response rating, Barnyardgrass (barnyardgrass; [2]): 10 | Plant response rating, Barnyardgrass (barnyardgrass; [3]): 55 | Plant response rating, Barnyardgrass (barnyardgrass; [4]): 75 | Barnyardgrass plant response rating (barnyardgrass; [5]): 65 | Barnyardgrass plant response rating (barnyardgrass; [6]): 90 | Plant response rating, Barnyardgrass (barnyardgrass; [7]): 95 | Plant response rating (scale of 0 to 100; 0 is no effect, 100 is complete control), Barnyardgrass (barnyardgrass; Preemergence, 250 g ai/ha): 100 | Plant response rating, Galium (galium; [1]): 0 | Plant response rating, Galium (galium; [2]): 0 | Plant response rating, Galium (galium; [3]): 5 | Plant response rating, Galium (galium; [4]): 20 | Galium plant response rating (galium; [5]): 0 | Galium plant response rating (galium; [6]): 0 | Plant response rating, Galium (galium; [7]): 0 | Plant response rating (scale of 0 to 100), Galium (galium; Preemergence, 250 g ai/ha): 5

— patent US10294202B2, “Pyrrolidinones as herbicides” (FMC Corporation, priority 2013, dated 2019)
